From ChEMBL document CHEMBL1287678, “5-{2-[4-(2-methyl-5-quinolinyl)-1-piperazinyl]ethyl}-2(1H)-quinolinones and 3,4-dihydro-2(1H)-quinolinones: dual-acting 5-HT1 receptor antagonists and serotonin reuptake inhibitors. Part 3” (Bioorg Med Chem Lett, 2010)

Tests used:
[1] = target: T1, 5-hydroxytryptamine receptor 1A (Homo sapiens, UniProt P08908); test: Antagonist activity at human 5-HT1A receptor expressed in HEK293 cells assessed as inhibition of GTPgammaS binding by scintillation proximity assay; assay type: functional, cell-based
T1 sequence (P08908 whole entry): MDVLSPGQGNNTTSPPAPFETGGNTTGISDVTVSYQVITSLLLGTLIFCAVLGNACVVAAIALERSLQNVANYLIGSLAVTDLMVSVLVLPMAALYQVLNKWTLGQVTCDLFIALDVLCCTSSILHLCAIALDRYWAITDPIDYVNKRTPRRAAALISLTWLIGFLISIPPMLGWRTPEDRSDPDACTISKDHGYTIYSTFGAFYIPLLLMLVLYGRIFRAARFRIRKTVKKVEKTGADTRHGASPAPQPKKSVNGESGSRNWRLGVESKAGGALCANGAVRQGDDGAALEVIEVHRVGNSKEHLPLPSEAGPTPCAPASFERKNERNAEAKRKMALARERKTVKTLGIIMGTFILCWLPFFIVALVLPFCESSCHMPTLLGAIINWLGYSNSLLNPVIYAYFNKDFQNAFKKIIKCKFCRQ

[2] = target: T2, 5-hydroxytryptamine receptor 1B (Homo sapiens, UniProt P28222); test: Antagonist activity at human 5-HT1B receptor expressed in CHO cells assessed as inhibition of GTPgammaS binding by scintillation proximity assay; assay type: functional, cell-based
T2 sequence (P28222 whole entry): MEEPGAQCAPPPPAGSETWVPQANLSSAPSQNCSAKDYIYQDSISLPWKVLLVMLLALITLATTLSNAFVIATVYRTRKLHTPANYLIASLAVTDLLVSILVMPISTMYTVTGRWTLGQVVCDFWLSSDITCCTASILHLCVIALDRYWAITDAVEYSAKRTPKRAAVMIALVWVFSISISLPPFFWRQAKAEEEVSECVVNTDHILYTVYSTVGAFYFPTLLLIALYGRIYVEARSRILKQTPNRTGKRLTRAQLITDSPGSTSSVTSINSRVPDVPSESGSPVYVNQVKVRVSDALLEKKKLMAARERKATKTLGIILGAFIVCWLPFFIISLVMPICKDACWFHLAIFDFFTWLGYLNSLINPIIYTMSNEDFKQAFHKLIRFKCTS

[3] = target: T3, 5-hydroxytryptamine receptor 1D (Homo sapiens, UniProt P28221); test: Antagonist activity at human 5-HT1D receptor expressed in CHO cells assessed as inhibition of GTPgammaS binding by scintillation proximity assay; assay type: functional, cell-based
T3 sequence (P28221 whole entry): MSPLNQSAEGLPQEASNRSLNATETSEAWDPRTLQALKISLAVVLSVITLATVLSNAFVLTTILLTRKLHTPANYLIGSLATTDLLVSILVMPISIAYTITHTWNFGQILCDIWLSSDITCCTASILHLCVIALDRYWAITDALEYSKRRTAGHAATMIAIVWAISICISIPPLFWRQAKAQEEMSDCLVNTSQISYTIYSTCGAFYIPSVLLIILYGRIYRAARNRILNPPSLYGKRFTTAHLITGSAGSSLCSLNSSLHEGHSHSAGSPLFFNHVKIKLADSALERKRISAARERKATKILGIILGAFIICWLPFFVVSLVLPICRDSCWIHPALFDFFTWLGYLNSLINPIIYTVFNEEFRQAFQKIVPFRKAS

[4] = target: Sodium-dependent serotonin transporter (Homo sapiens, UniProt P31645); test: Displacement of [3H]-citalopram in human SERT expressed in LLCPK cells by filtration assay; assay type: cell-based
Chain of Sodium-dependent serotonin transporter (P31645 whole entry): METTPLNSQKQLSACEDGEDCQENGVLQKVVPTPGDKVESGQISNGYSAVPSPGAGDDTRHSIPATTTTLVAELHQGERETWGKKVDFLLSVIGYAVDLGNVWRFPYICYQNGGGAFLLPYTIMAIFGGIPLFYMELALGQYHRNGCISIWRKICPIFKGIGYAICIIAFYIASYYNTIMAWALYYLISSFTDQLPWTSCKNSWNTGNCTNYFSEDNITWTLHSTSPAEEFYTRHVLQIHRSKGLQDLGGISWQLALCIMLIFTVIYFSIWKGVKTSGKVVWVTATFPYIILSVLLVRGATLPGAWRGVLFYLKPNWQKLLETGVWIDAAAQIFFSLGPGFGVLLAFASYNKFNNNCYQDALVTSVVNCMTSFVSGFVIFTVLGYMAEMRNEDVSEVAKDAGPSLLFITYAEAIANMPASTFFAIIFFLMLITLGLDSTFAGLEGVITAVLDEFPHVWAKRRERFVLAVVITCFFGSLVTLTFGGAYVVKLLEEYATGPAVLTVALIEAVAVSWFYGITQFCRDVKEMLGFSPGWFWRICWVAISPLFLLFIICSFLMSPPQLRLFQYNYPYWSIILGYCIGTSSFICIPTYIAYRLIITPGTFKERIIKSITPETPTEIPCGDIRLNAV

[5] = target: Voltage-gated inwardly rectifying potassium channel KCNH2 (Homo sapiens, UniProt Q12809); test: Displacement of [3H]-dofetilide in human hERG expressed in CHO cells by proximity assay; assay type: cell-based
Chain of Voltage-gated inwardly rectifying potassium channel KCNH2 (Q12809 whole entry): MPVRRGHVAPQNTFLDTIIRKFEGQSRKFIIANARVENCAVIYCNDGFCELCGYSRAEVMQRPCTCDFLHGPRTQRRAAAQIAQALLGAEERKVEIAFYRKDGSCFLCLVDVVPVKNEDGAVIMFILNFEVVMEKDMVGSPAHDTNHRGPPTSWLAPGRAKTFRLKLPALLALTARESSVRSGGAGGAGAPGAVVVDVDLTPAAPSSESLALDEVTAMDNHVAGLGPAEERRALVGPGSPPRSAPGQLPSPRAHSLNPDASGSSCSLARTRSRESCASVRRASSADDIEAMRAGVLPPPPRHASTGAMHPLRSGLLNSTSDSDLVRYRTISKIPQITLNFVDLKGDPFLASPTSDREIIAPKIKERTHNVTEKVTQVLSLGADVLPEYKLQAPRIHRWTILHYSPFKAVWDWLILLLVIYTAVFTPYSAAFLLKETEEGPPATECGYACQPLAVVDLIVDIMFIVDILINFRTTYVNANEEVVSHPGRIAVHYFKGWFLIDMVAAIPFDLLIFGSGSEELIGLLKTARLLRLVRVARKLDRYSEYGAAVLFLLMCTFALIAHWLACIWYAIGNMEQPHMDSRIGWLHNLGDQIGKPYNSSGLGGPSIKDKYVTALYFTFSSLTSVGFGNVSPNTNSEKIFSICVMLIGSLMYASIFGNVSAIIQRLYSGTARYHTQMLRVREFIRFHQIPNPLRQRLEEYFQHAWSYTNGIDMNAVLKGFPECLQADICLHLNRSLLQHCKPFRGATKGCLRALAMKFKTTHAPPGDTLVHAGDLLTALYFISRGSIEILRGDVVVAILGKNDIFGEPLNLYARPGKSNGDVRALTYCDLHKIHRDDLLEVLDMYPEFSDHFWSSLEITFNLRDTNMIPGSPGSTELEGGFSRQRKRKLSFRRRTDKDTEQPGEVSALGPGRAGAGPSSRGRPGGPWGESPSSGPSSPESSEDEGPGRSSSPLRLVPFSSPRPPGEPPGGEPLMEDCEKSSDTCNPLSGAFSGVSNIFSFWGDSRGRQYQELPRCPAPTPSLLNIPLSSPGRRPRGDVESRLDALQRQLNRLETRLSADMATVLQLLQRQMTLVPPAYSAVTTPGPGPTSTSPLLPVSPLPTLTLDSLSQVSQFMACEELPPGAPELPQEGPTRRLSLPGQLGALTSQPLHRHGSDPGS

Liver microsomes = test: Intrinsic clearance in human liver microsomes; assay type: ADME, Microsome
[6] = Blood clearance in rat at 0.5 mg/kg, iv and 1 mg/kg, po; assay type: ADME, organism-based; settings: whole blood
[7] = Volume of distribution at steady state in rat at 0.5 mg/kg, iv and 1 mg/kg, po; assay type: ADME, organism-based; settings: in vivo, read-out: Vdss
[8] = Half life in rat at 0.5 mg/kg, iv and 1 mg/kg, po; assay type: ADME, organism-based; settings: in vivo
[9] = Oral bioavailability in rat at 1 mg/kg; assay type: ADME, organism-based; settings: in vivo
[10] = Ratio of drug level in brain to blood in rat at 0.5 mg/kg, iv and 1 mg/kg, po; assay type: ADME, organism-based; settings: brain / whole blood
[11] = target: T4, 5-hydroxytryptamine receptor 1A (Homo sapiens) (UniProt P08908); test: Intrinsic activity at human 5-HT1A receptor expressed in HEK293 cells assessed as effect on GTPgammaS binding by scintillation proximity assay relative to 5HT; assay type: functional, cell-based
T4 sequence (whole entry): T1 sequence (P08908 whole entry)

[12] = target: T2, 5-hydroxytryptamine receptor 1B; test: Intrinsic activity at human 5-HT1B receptor expressed in CHO cells assessed as effect on GTPgammaS binding by scintillation proximity assay relative to 5HT; assay type: functional, cell-based
[13] = target: T3, 5-hydroxytryptamine receptor 1D; test: Intrinsic activity at human 5-HT1D receptor expressed in CHO cells assessed as effect on GTPgammaS binding by scintillation proximity assay relative to 5HT; assay type: functional, cell-based
[14] = target: T2, 5-hydroxytryptamine receptor 1B; test: Agonist activity at human 5-HT1B receptor expressed in CHO cells assessed as stimulation of GTPgammaS binding by scintillation proximity assay; assay type: functional, cell-based

SMILES | Ki [1] | Ki [2] | Ki [3] | Ki [4] | Ki [5] | CL (Liver microsomes) | clearance [6] | Vd [7] | half-life [8] | bioavailability [9] | Kp [10] | Intrinsic activity [11] | Intrinsic activity [12] | Intrinsic activity [13] | EC50 [14]
Cc1ccc2c(N3CCN(CCc4cccc5c4ccc(=O)n5C)[C@@H](C)C3)cc(F)cc2n1 | 1 nM | 316 nM | 1.26 nM | 0.501 nM | 6310 nM | 0.8 mL/min/g | 34 mL/min/kg | 2 L/kg | 1.6 h | 34% | 1.2 | 0 | 0 | 0 | 
Cc1ccc2c(N3CCN(CCc4c(F)ccc5c4ccc(=O)n5C)CC3)cccc2n1 | 0.398 nM | 31.6 nM | 0.398 nM | 12.6 nM | 31600 nM |  |  |  |  |  |  | 0 | 0 | 0 | 
Cc1ccc2c(C3CCN(CCc4c(C)ccc5c4ccc(=O)n5C)CC3)cccc2n1 | 1.26 nM | > 1000 nM | 39.8 nM | 1.26 nM | 2000 nM | 0.9 mL/min/g | 31 mL/min/kg | 3.4 L/kg | 1.4 h | 82% | 0.8 | 0 |  | 0 | 
Cc1ccc2c(N3CCN(CCc4c(C)ccc5c4ccc(=O)n5C)[C@@H](C)C3)cccc2n1 | 3.98 nM | > 1000 nM | 20 nM | 0.501 nM | 1580 nM | < 0.5 mL/min/g | 46 mL/min/kg | 2.7 L/kg | 1.2 h | 35% | 1.7 | 0 |  | 0 | 
Cc1ccc2c(N3CCN(CCc4c(C)ccc5[nH]c(=O)ccc45)CC3)cccc2n1 | 1 nM |  |  | 100 nM |  |  |  |  |  |  |  | 0 | 0.4 | 0 | 501 nM
Cc1ccc2c(N3CCN(CCc4cccc5c4OCC(=O)N5)CC3)cccc2n1 |  |  |  |  |  | 1 mL/min/g |  |  |  |  |  |  |  |  | 
Cc1ccc2c(N3CCN(CCc4cccc5c4ccc(=O)n5C)C(C)(C)C3)cccc2n1 | 1.58 nM | 0.501 nM | 0.501 nM |  |  | 3.8 mL/min/g | 34 mL/min/kg | 0.8 L/kg | 0.6 h | 27% | 1.1 | 0.3 |  | 0 | 
Cc1ccc2c(N3CCN(CCc4c(C)ccc5c4ccc(=O)n5C)CC3)cccc2n1 | 0.631 nM |  | 2 nM | 12.6 nM | 3980 nM | 1.5 mL/min/g | 28 mL/min/kg | 2.3 L/kg | 1.1 h | 88% | 0.5 | 0 | 0.4 | 0 | 63.1 nM
Cc1ccc2c(N3CCN(CCc4cccc5c4ccc(=O)n5C)[C@H](C)C3)cc(F)cc2n1 | 1 nM | 0.794 nM | 0.126 nM | 0.501 nM | 10000 nM |  |  |  |  |  |  | 0 | 0 | 0 | 
Cc1ccc2c(N3CCN(CCc4cccc5c4ccc(=O)n5C)[C@@H](C)C3)cccc2n1 | 3.16 nM | 398 nM | 5.01 nM | 2.51 nM | 5010 nM | 1.5 mL/min/g | 32 mL/min/kg | 1.2 L/kg | 0.6 h | 12% | 1.3 | 0 | 0 | 0 | 
Cc1ccc2c(N3CCN(CCc4cccc5c4CCC(=O)N5)CC3)cccc2n1 |  |  |  |  |  |  |  |  |  |  |  | 0 | 0 | 0 | 
Cc1ccc2c(N3CCN(CCc4c(C)ccc5c4ccc(=O)n5C)[C@H](C)C3)cccc2n1 | 1.26 nM | > 1000 nM | 2.51 nM | 3.98 nM | 7940 nM | 1.2 mL/min/g | 21 mL/min/kg | 2.1 L/kg | 1.5 h | 31% | 0.4 | 0 |  | 0 | 
Cc1ccc2c(N3CCN(CCc4cccc5[nH]c(=O)ccc45)CC3)cccc2n1 |  |  |  |  |  |  |  |  |  |  |  | 0 | 0 | 0 | 
Cc1ccc2c(N3CCN(CCc4c(Cl)ccc5c4ccc(=O)n5C)CC3)cccc2n1 | 3.98 nM |  | 3.98 nM | 15.8 nM |  |  |  |  |  |  |  | 0 | 0.5 | 0 | 316 nM
Cc1ccc2c(N3CCN(CCc4cccc5c4OCC(=O)N5C)CC3)cccc2n1 |  |  |  |  |  | 2.4 mL/min/g |  |  |  |  |  |  |  |  | 
Cc1ccc2c(N3CCN(CCc4c(C)ccc5c4ccc(=O)n5C)CC3)cc(F)cc2n1 | 1.26 nM | > 1000 nM | 2 nM | 10 nM | 2510 nM | 1.6 mL/min/g | 46 mL/min/kg | 2.4 L/kg | 0.7 h | 82% |  | 0 |  | 0 | 
Cc1ccc2c(N3CCN(CCc4c(C)ccc5c4ccc(=O)n5C)[C@@H](C)C3)cc(F)cc2n1 | 3.98 nM | > 1000 nM | > 1000 nM | 1 nM |  |  |  |  |  |  |  | 0 |  |  | 
Cc1ccc2c(N3CCN(CCc4c(C)ccc5c4CCC(=O)N5C)CC3)cccc2n1 | 0.631 nM |  | 1 nM | 25.1 nM | 794 nM | 1.3 mL/min/g | 9 mL/min/kg | 2 L/kg | 3 h | 83% | 0.4 | 0 | 0.4 | 0 | 398 nM
Cc1ccc2c(N3CCN(CCc4cccc5c4CCC(=O)N5C)CC3)cccc2n1 | 0.631 nM | 0.794 nM | 0.0794 nM | 12.6 nM | 3980 nM |  |  |  |  |  |  | 0 | 0 | 0 | 
